Laboratory results: patent EP2769738B1, “Conjugated TLR7 and/or TLR8 and TLR2 polycationic agonists” (Invivogen, priority 2013, dated 2014)

Legend:
[1] = tested on: ISG54 promoter activity in RAW-ISG54 reporter cells; assay: IFN response assay, RAW-ISG54 luciferase reporter cells; assay type: cell-based, mouse; details: Figure 6A, in complexes with pDNA 3:24 (w:w), overnight
Procedure: (§1) The effect of the pDNA:TLR7-TLR2 polyamine molecules complexes on inducing an interferon response was examined. pDNA:TLR7-TLR2 polyamine molecules mixtures (pDNA:TLR7-TLR2 polyamine molecules ratio 3:24, w:w) in serum-free medium or 5% glucose were prepared as described above and added to IFN reporter cells. Luciferase reporter cell lines were used to assay interferon response. A plasmid containing an interferon-inducible luciferase reporter gene was introduced into mouse RAW 264.7 macrophages and mouse B16 melanoma cells, giving rise to the RAW-ISG54 and B16-ISG54 reporter cell lines respectively. Expression of the luciferase reporter gene by the plasmid is under the control of an interferon-inducible promoter (I-ISG54) comprising five interferon-stimulated response elements (ISRE) and the minimal promoter of the human ISG-54K (Interferon Stimulation of a Gene encoding a 54 kDa protein) gene. The ISG-54K gene is induced by interferon regulatory factor 3 (IRF3), which has a key involvement in […] responses (Grandvaux et al. 2002) and the minimal promoter of the human ISG-54K gene contains two ISRE sites and fully inducible by type I interferons (IFN-α and IFN-β) and interferon regulatory factors (IRFs) (Wathelet et al. 1988; Grandvaux et al. 2002).
(§2) The RAW-ISG54 and B16-ISG54 reporter cell lines were seeded onto 96 well microtiter plates at 100,000 cells per well and 75,000 cells per well respectively. […] The induced luciferase expression was assessed in the reporter cell lines using a coelenterazine-base luminescence assay reagent, the Quanti-LucTM (InvivoGen). Secreted luciferase activity was determined by bioluminescence quantification of the cell culture media using a microplate luminometer (FLUOstar OPTIMA from BMG Labtech).

[2] = tested on: ISG54 promoter activity in B16-ISG54 reporter cells; assay: IFN response assay, B16-ISG54 luciferase reporter cells; assay type: cell-based, mouse; details: Figure 6B, in complexes with pDNA 3:24 (w:w), overnight
Procedure: as §1, §2

HEK293 cells = assay: Cell transfection with SEAP plasmid, HEK293; assay type: cell-based, human; details: Figure 5A; in complex with pVitro14 LGFP SEAP plasmid, 48 hours, SEAP reporter gene expression
Procedure: The TLR7-TLR2 molecules were tested for their ability as polyamine molecules to transport plasmid DNA (pDNA) into cells. The pVitro14 LGFP SEAP plasmid (InvivoGen) was complexed to TLR7-TLR2 polyamine molecules and to the control cationic lipid transfection agent, LyoVec™ (InvivoGen). The human HEK293 (ATCC, CRL-1573) and mouse B16-F1 melanoma (ATCC, CRL-6323) cell lines were seeded at a density of 50 000 cells/well and 20 000 cells/well respectively, in the absence or presence of different volumes of the plasmid encoding for the SEAP protein in complex with TLR7-TLR2 polyamine molecules for 48 hours at 37°C and 10% CO2. Transfection efficiency was assessed by measuring SEAP reporter gene expression: 20 µl of supernatant was sampled and mixed with 180 µl of QUANTI-Blue™ Detection (InvivoGen). In the presence of alkaline phosphatase SEAP, the color of QUANTI-Blue™ changes from pink to purple/blue. The intensity of the blue hue reflects the activity of SEAP. The levels of SEAP secretion were determined quantitatively by reading the OD at 620-655 nm using a spectrophotometer, iMark™ Microplate Reader (BIO-RAD).

Row | SMILES | ability to induce an IFN response (ISG54 promoter activity) in RAW-ISG54 reporter cells [1] | ability to induce an IFN response (ISG54 promoter activity) in B16-ISG54 reporter cells [2] | ability to transfect HEK293 cells (HEK293 cells)
1 | CCCCCCCCCCCCCCCC(=O)OCC(CSC[C@H](N)C(=O)N[C@@H](CCC(=O)NCCCNCCCCNCCCN)C(=O)Nc1ccc(Cn2c(O)nc3c(N)nc(NCCCC)nc32)cc1)OC(=O)CCCCCCCCCCCCCCC (stereo partly drawn) [CL527, (6R,9S)-6,25-diamino-9-(4-((6-amino-2-(butylamino)-8-hydroxy-9H-purin-9-yl)methyl)phenylcarbamoyl)-7,12-dioxo-4-thia-8,13,17,22-tetraazapentacosane-1,2-diyl dipalmitate] | induce an IFN response in RAW-ISG54 reporter cells | induce an IFN response in B16-ISG54 reporter cells | transfect HEK293 cells
2 | CCCCCCCCCCCCCCCC(=O)OCC(CSC[C@H](N)C(=O)N[C@@H](COC(=O)c1ccc(Cn2c(O)nc3c(N)nc(NCCCC)nc32)cc1)C(=O)NCCCNCCCCNCCCN)OC(=O)CCCCCCCCCCCCCCC (stereo partly drawn) [CL514, (6R,9S)-6,23-diamino-9-((4-((6-amino-2-(butylamino)-8-hydroxy-9H-purin-9-yl)methyl)benzoyloxy)methyl)-7,10-dioxo-4-thia-8,11,15,20-tetraazatricosane-1,2-diyl dipalmitate] | induce an IFN response in RAW-ISG54 reporter cells | induce an IFN response in B16-ISG54 reporter cells | transfect HEK293 cells
3 | CCCCCCCCCCCCCCCC(=O)OCC(CSC[C@H](N)C(=O)NCCCNCCCCNCCCNC(=O)CNC(=O)c1ccc(Cn2c(O)nc3c(N)nc(NCCCC)nc32)cc1)OC(=O)CCCCCCCCCCCCCCC (stereo partly drawn) [CL553, (20R)-20-amino-1-(4-((6-amino-2-(butylamino)-8-hydroxy-9H-purin-9-yl)methyl)phenyl)-1,4,19-trioxo-22-thia-2,5,9,14,18-pentaazapentacosane-24,25-diyl dipalmitate] | induce an IFN response in RAW-ISG54 reporter cells | induce an IFN response in B16-ISG54 reporter cells | transfect HEK293 cells
